The numbers were not newly measured in US20120322745A1, “OPTIMIZED METHOD FOR OBTAINING ACE ACTIVITY INHIBITORY PEPTIDES FROM WHEY, ACE INHIBITORY PEPTIDES AND FOOD COMPRISING THEM” (QUEIZUAR ,S.L., priority 2011, published 2012), which cites them from elsewhere.

For orientation: IC50 means the concentration at which inhibition is half-maximal.

Bounds are passed on as bounds.

The data set concerns the target angiotensin converting enzyme (ACE). To be noted: ACE inhibitory peptides obtained by enzymatic hydrolysis of whey proteins.
As to VLDTDYK [β-Lg f(94-100)], the IC50 was 946 µM. On to “β-Lg f(81-83): ACE inhibitory peptide, sequence VFK, from whey protein hydrolysis with trypsin (UniProt P02754 97-99, looked up, fragment)”, for which the IC50 was 1030 µM. Regarding WLAHK [α-La f(104-108)], the IC50 is 77 µM. With VGINYWLAHK [α-La f(99-108)], the IC50 is 327 µM.

“β-Lg f(22-25): ACE inhibitory peptide, sequence LAMA, from whey protein hydrolysis with trypsin (UniProt P02754 38-41, looked up, fragment)”: the IC50 was 556 µM. As for “β-Lg (f 102-105): ACE inhibitory peptide, sequence YLLF, from hydrolysis with pepsin, trypsin, chemotrypsin (UniProt P02754 118-121, looked up, fragment)”, the IC50 was 172 µM. For the substance “β-Lg f(15-19): ACE inhibitory peptide, sequence VAGT, from hydrolysis with pepsin, trypsin, chemotrypsin”, the half-maximal inhibitory concentration (IC50) is 1050 µM. For “β-Lg f(78-80): ACE inhibitory peptide, sequence IPA, from whey protein hydrolysis with proteinase k (UniProt P02754 94-96, looked up, fragment)”, the IC50 was 141 µM.

In the case of ALKAWSVAR [BSA f(208-216)], the IC50 was 3 µM. Turning to LKPTPEGN [β-Lg (f 46-53)], the IC50 was above 2700 µM.

In the case of LDAQSAPLR [β-Lg f(32-40)], the IC50 was 635 µM. In the case of “β-Lg (f 122-125): ACE inhibitory peptide, sequence LVRT, from whey protein hydrolysis with thermolysin (UniProt P02754 138-141, looked up, fragment)”, the IC50 is 2470 µM. For ALPMHIR [β-Lg (f 142-148)], the half-maximal inhibitory concentration (IC50) is 42.6 µM. In the case of CMENSA [β-Lg f(106-111)], the IC50 is 788 µM.

On to “β-Lg f(103-105): ACE inhibitory peptide, sequence LLF, from whey protein hydrolysis with thermolysin (UniProt P02754 119-121, looked up, fragment)”, for which the IC50 is 79.8 µM.

As for “β-Lg f(58-61): ACE inhibitory peptide, sequence LKQW, from whey protein hydrolysis with thermolysin”, the IC50 was 34.7 µM. For “ALPMH (UniProt P02754 158-162, looked up, fragment) [β-Lg f(142-146)]”, the IC50 is 521 µM.
